According to the supplement of paper PMC5412046:
Structures can show the parent of a compound that is named as a salt.

What was measured:
SB.mhdgc-1 = assay: AC50 for growth inhibition (viability) (log10 M); higher = less potent; details: SB.mhdgc-1 (hereditary c.1380delA CDH1 gastric cancer)
In short: (§1)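 Compound dissolved in DMSO was transferred by pintool, 23 nL per 1536 well, onto 500 hereditary or sporadic patient-derived gastric cancer cells in 5 μL medium. The series spanned 11 threefold dilutions, the highest at a final 46 μM. At 48 h, a 30 min room-temperature incubation with CellTiter-Glo preceded luminescence measurement on a ViewLux. The log half-maximal activity concentration was fitted by a four-parameter model to DMSO-normalised viability, with only high-quality curve classes accepted.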

SB.msgc-1 = assay: as above; details: SB.msgc-1 (sporadic gastric cancer)
In short: as §1

SMILES	AC50 for growth inhibition (log10 M) (SB.mhdgc-1)	AC50 for growth inhibition (log10 M) (SB.msgc-1)
CC(=O)O/N=C1/C(=C2\C(=O)Nc3cc(Br)ccc32)Nc2ccccc21 [6-Bromoindirubin-3'-acetoxime]	-5.13	-4.93
C[C@]12CC[C@@H]3c4ccc(O)cc4CC[C@H]3[C@@H]1[C@@H](O)[C@@H](O)[C@@H]2O [Estetrol]	-4.88	-4.68
Cc1cc(Nc2cc(N3CCN(C)CC3)nc(/C=C/c3ccccc3)n2)n[nH]1	-4.32	-4.27
O=C(O)C1CCCN(CCC=C(c2ccccc2)c2ccccc2)C1 (stereo not given)	-5.53	-5.03
C[C@]1(O)CC(C1)C2=NC(=C3[N]2C=CN=C3N)C4=CC5=C(C=C4)C=CC(=N5)C6=CC=CC=C6 (stereo not given) [Linsitinib]	-5.03	-4.78
O=C(O)Cc1cccc(OCCCN(Cc2cccc(C(F)(F)F)c2Cl)CC(c2ccccc2)c2ccccc2)c1 [GSK-3965]	-4.78	-4.68
CCCCCC[C@H]1C(=O)O[C@H](C)[C@H](NC(=O)c2cccc(NC=O)c2O)C(=O)O[C@@H](C)[C@@H]1OC(=O)CC(C)C [Antimycin A]	-7.08	-7.13
C[C@@H]1O[C@@H](O[C@H]2C[C@@H](O)[C@]3(CO)[C@H]4[C@H](O)C[C@]5(C)[C@@H](C6=CC(=O)OC6)CC[C@]5(O)[C@@H]4CC[C@]3(O)C2)[C@H](O)[C@H](O)[C@H]1O [G-Strophanthin]	-6.98	-7.38
COC(=O)Nc1nc2cc(C(=O)c3ccc(F)cc3)ccc2[nH]1 [Flubendazole]	-5.23	-6.23
Cc1ccc(C)c(OCCCC(C)(C)C(=O)O)c1 [Gemfibrozil]	-4.78	-5.13
CC(O)(C[S+](=O)([O-])c1ccc(F)cc1)C(=O)Nc1ccc(C#N)c(C(F)(F)F)c1 (stereo not given) [Bicalutamide]	-6.43	-5.98
Cc1cc(Nc2cc(CN3CCOCC3)c3nc(C)c(Cc4ccc(Cl)cc4F)n3n2)[nH]n1 [Gandotinib]	-4.68	-4.73
CN(C)CCOc1ccc(/C(=C(/CCCl)c2ccccc2)c2ccccc2)cc1 [Toremifene]	-4.63	-4.63
FC(F)c1nc2ccccc2n1-c1nc(N2CCOCC2)nc(N2CCOCC2)n1 [ZSTK-474]	-6.48	-5.98
C=CC(=O)Nc1cc2c(Nc3ccc(F)c(Cl)c3)ncnc2cc1OCCCN1CCOCC1 [Canertinib]	-4.73	-5.18
Cc1[nH]c2ccccc2c1CCNCc1ccc(/C=C/C(=O)NO)cc1 [Panobinostat]	-6.08	-6.98
CC(C)n1cnc2c(NCCCCCCNC(=O)OC(C)(C)C)nc(NCCO)nc21 [CK59]	-4.93	-5.23
CC(C)c1onc(-c2c(Cl)cccc2Cl)c1COc1ccc(/C=C/c2cccc(C(=O)O)c2)c(Cl)c1 [GW-4064X]	-5.33	-4.73
NC/1=N/C(=O)C2=C([NH]C=C2CCC3=CC=C(C=C3)C(=O)N[C@@H](CCC(O)=O)C(O)=O)N1 [Pemetrexed disodium]	-6.33	-6.23
COc1ccc(C(=O)CC2(O)C(=O)Nc3c(Cl)ccc(Cl)c32)cc1 (stereo not given) [YK-4-279]	-5.78	-5.63
COC[C@H](c1ccc(C(F)(F)F)cc1)N1CCN(C2(C)CCN(C(=O)c3c(C)ncnc3C)CC2)C[C@H]1C.O=C(O)/C=C\C(=O)O [Vicriviroc]	-5.33	-4.78
O=C(/C=C/c1cccc([S+](=O)([O-])Nc2ccccc2)c1)NO [Belinostat]	-5.02	-5.47
COc1cc(C(=O)N2CCC(N3CCN(C)CC3)CC2)ccc1Nc1ncc2c(n1)N(C)c1ccccc1C(=O)N2C [LRRK2-IN-1]	-4.78	-4.83

SMILES	AC50 for growth inhibition (log10 M) (SB.mhdgc-1)	AC50 for growth inhibition (log10 M) (SB.msgc-1)
CC[C@@H](C)[C@H](NC(=O)[C@H](CC1CCCCC1)NC(=O)c1ccno1)C(=O)N1CCC2(CCc3ccccc32)CC1 [GB 83]	-4.88	-4.98
CCC[C@@H](C=O)NC(=O)[C@H](CC(C)C)NC(=O)[C@H](CC(C)C)NC(=O)OCc1ccccc1 [MG-115]	-5.98	-5.88
C[C@H]1O[C@H](C[C@H](O)[C@@H]1O)O[C@H]2[C@@H](O)C[C@@H](O[C@@H]2C)O[C@H]3[C@@H](O)C[C@@H](O[C@@H]3C)O[C@H]4CC[C@@]5(C)[C@H](CC[C@@H]6[C@@H]5C[C@@H](O)[C@]7(C)[C@H](CC[C@]67O)C/8=C/C(=O)OC8)C4 [Digoxin]	-6.62	-6.62
CN1CCCC(CC1)N2\N=C(CC3=CC=C(Cl)C=C3)/C4=C(C=CC=C4)C2=O (stereo not given) [Azelastine hydrochloride]	-6.08	-6.03
COc1ccc2c(c1)c(CC(=O)O)c(C)n2C(=O)c1ccc(Cl)cc1 [Indomethacin]	-6.03	-5.93
CN(C)CCCN1c2ccccc2CCc2ccc(Cl)cc21 [Clomipramine hydrochloride]	-6.13	-5.93
CC(C)n1nc(-c2ccc3oc(N)nc3c2)c2c(N)ncnc21 [INK-128]	-4.78	-5.48
CC(C)NCC(O)c1ccc(NS(C)(=O)=O)cc1 (stereo not given) [Sotalol]	-4.83	-5.03
CC(C)C(=O)Nc1ccc([N+](=O)[O-])c(C(F)(F)F)c1 [Flutamide]	-5.83	-5.63
Cc1nc(NC(=O)N2CCC[C@H]2C(N)=O)sc1-c1csc(C(C)(C)C)n1 [A-66]	-5.38	-6.53
O=C(Nc1ncc(-c2cc(C(F)F)nn2-c2c(Cl)cccc2Cl)s1)C1CC1 [BMS-3]	-6.13	-6.18
CNCCCC12CCC(c3ccccc31)c1ccccc12 [Maprotiline hydrochloride]	-4.78	-4.63
Cc1c(C(=O)Nc2cccc(C(F)(F)F)c2)cc(-c2ccccc2)n1CCCN1CCOCC1	-4.78	-4.83
COC(=O)Nc1ccc(-c2nc(N3CCOCC3)c3cnn(C4CCN(Cc5cccnc5)CC4)c3n2)cc1 [WYE-687]	-7.18	-4.68
CC1=CC2=C(O1)C(=C3OC(=O)\C=C(C)/C3=C2)C [Trioxsalen]	-5.38	-4.93
O=C1[C@H](Cc2ccc(O)cc2)N2C(=O)CCN(C(=O)NCc3ccccc3)[C@H]2CN1Cc1cccc2ccccc12 [ICG-001]	-4.83	-4.88
CC1=C(C=CC=C1)N2\C(=N/C3=C(C(=CC=C3)C)C2=O)C[N]4N=CC5=C4N=CN=C5N [PIK-293]	-6.73	-7.08
COCCCC/C(=N\OCCN)c1ccc(C(F)(F)F)cc1 [Fluvoxamine maleate]	-4.63	-4.88
ClC1=CC=C(C=C1)C(C#N)C2=C(Cl)C=C(C=C2Cl)N3\N=C/C(=O)NC3=O (stereo not given) [Diclazuril]	-4.78	-4.73
CC(C)(C)Cn1c(N)nc2ccc(-c3[nH]c(C(C)(C)C)nc3-c3ccc(F)cc3)nc21	-4.53	-4.73
Cc1ccc(CN2CCNCC2)cc1NC(=O)CNc1ccc(F)c(F)c1	-5.93	-5.38
CN(C)c1ccc2nc3ccc(N(C)C)cc3[s+]c2c1 [Methylene blue]	-5.83	-5.33
